Test results as given in patent US20150265682A1, “THERAPEUTIC METHODS AND COMPOSITIONS FOR TREATING DIABETES” (Orient Europharma Co., Ltd., priority 2014, published 2015).

Legend:
IL-6-treated C2C12 cells = assay: Glycogen content assay in IL-6-treated (insulin resistant) C2C12 cells; type: cell-based; settings: 30 minutes; for fold increase of glycogen content: IL-6-treated C2C12
Procedure: The C2C12 skeletal muscle cells were cultured in Dulbecco's modified Eagle's medium (DMEM; Gibco/Invitrogen, Carlsbad, Calif.), and the human hepatocellular carcinoma cell line, Hep3B, was cultured in Roswell Park Memorial Institute medium 1640 (RPMI 1640 medium; Gibco/Invitrogen, Carlsbad, Calif.). Cells were cultured at 37° C. in the humidified incubator supplied with 5% CO2. Culture mediums were supplemented with 4.5 mgmL^−1 glucose, penicillin 100 IUmL^−1, streptomycin 100 μgmL^−1 and 10% fetal bovine serum (Gibco/Invitrogen, Carlsbad, Calif.). Only C2C12 cells were then switched to 2% horse serum for 3 days after reaching the 70% confluence. Myotubes formation was achieved after 4 days of incubation, and the cells were used for subsequent experiments. Culture mediums were replaced by serum free DMEM or RPMI for 24 h before experiments (see e.g., procedure described in Sultan et al., 2006).
C2C12 and Hep3B cells were treated with 1 nM insulin, 100 μM metformin, and the assigned concentration of borapetoside A for 30 minutes. To develop the insulin resistance state of cells, C2C12 cells were incubated with IL-6 at 20 ngmL^−1 for 1 hour. Later, the cells were treated with 1 nM insulin, 100 μM metformin, and the assigned concentration of borapetoside A for 30 minutes. After the assigned treatment, cells were washed twice with phosphate buffered saline (PBS). Glycogen content was measured as previously described, with some modifications (see e.g., Savage et al., 2008). The protein concentrations of the cell lysates were determined by using Pierce BCA Protein Assay Kit (Thermo-Scientific, Rockford, Ill.). The glycogen content of each sample was normalized by total protein.

[1] = system: liver of normal, type 1 DM and type 2 DM mice; assay: Glycogen content in liver in vivo (borapetoside A); design: species or system ICR mice; settings: borapetoside A 10 mgkg^−1 i.p. 60 minutes, insulin 0.5 IUkg^−1
Procedure: After three days of acclimatization, the mice had free access to a standard rodent chow (normal mice), a standard rodent chow after single […] streptozotocin (STZ) intraperitoneal injection (T1DM mice), and a fat-rich chow diet and fructose-sweetened water (T2DM mice) for 4 weeks. The induction of Type 1 DM was assessed and confirmed when the mice had plasma glucose levels ≧350 mgdL^−1, accompanied with polyuria, hyperphagia and decreased body weight. The induction Type 2 DM in the mice was assessed by measuring fasting plasma glucose levels and confirmed when plasma glucose level was ≧150 mgdL^−1 after the 4-week induction. The animals were assigned randomly into three groups, with seven animals in each group. In group I, the mice were treated with vehicle, 2% DMSO in normal saline, as the negative control. In group II, the mice were intraperitoneally treated with borapetoside A (0.1-10 mgkg^−1). In group Ill, the positive control, the mice received intraperitoneally metformin (300 mgkg^−1; Sigma Chemical Co., St. Louis, Mo., U.S.A.) or insulin (0.5 IUkg^−1; Insulin Actrapid® HM; Novo Nordisk, Denmark). In the acute study, mice under anesthesia received a single intraperitoneal administration of borapetoside A, negative control, or positive control. In the subacute study, mice received intraperitoneal administrations of borapetoside A, vehicle, or insulin twice a day for seven days.
The mice were injected with borapetoside A (10 mgkg^−1, interperitoneal) for 60 minutes or insulin (0.5 IUkg^−1, interperitoneal) for 30 minutes. After the treatment, the anesthetic mice were sacrificed by cervical dislocation to collect the soleus muscle and liver. About 40 mg of each sample was dissolved in 1 mol/L KOH at 75° C. for 30 min. The dissolved homogenate was neutralized by glacial acetic acid and then incubated overnight in acetate buffer (0.3 mol/L sodium acetate, pH 4.8) containing amyloglucosidase (Sigma, St. Louis, Mo.). The mixture was then neutralized with 1 mol/L NaOH to stop the reaction. The glycogen contents in the tissue samples were determined as μg of glucose per mg of tissue (wet weight).

[2] = system: soleus muscle of normal, T1DM and T2DM mice; assay: Glycogen content of skeletal muscle (borapetoside C or insulin); type: in vivo, ICR mice; settings: borapetoside C 5 mg/kg i.p., insulin (Actrapid) 0.5 IU/kg i.p.
Procedure: This study was conducted following the University ethical guidelines on animal experimentation and complied with the Guide for the Care and Use of Laboratory Animals published by the US National Institutes of Health (NIH publication no. 85-23, revised 1996). The animal facility was well controlled for temperature (22±1° C.), and humidity (60±5%) and a 12 h/12 h light-dark cycle was maintained with access to food and water ad libitum. Four-week-old male ICR mice were acquired from BioLasco Taiwan Co., Ltd. and maintained at College of Medicine Experimental Animal Center, National Taiwan University. The study was conducted on 8-10 week-old male ICR mice.
T1DM mice were induced by a known method. In brief, an intraperitoneal injection of streptozotocin (STZ; Sigma Chemical Co.; St. Louis, Mo.) at 150 mg/kg was performed in mice that were fasted for 48 h. The induction of T1DM was assessed and confirmed when the mice had plasma glucose levels ≧350 mg/dL, accompanied with polyuria, hyperphagia and decreased body weight. The control mice group received an injection of vehicle and then carried out for 4 weeks. T2DM mice were induced by maintaining on a fat-rich chow diet and fructose-sweetened water for 4 weeks from the age of 4-5 weeks according to previous methods. The induction T2DM mice were assessed by measuring fasting plasma glucose levels and confirmed when plasma glucose level was ≧150 mg/dL after a 4-week induction.
Glycogen content of skeletal muscles was measured by a known method. In brief, mice were injected with borapetoside C (5.0 mg/kg, interperitoneal) for 60 min or insulin (0.5 IU/kg, interperitoneal.) for 30 min, and the soleus muscle was isolated from anesthetized mice. About 40 mg of muscle sample was dissolved in 1 N KOH at 75° C. for 30 min. The dissolved homogenate was neutralized by glacial acetic acid and then incubated overnight in acetate buffer (0.3 M sodium acetate, pH 4.8) containing amyloglucosidase (Sigma, St. Louis, Mo.). The mixture was then neutralized with 1 N NaOH to stop the reaction. The glycogen contents in the tissue samples were determined as μg of glucose per mg of tissue (wet weight).

Compound | glycogen content (IL-6-treated C2C12 cells; IL-6-induced insulin resistant model, 1 nM insulin) | glycogen content in liver ([1]; mice with type 2 DM) | Glycogen synthesis in skeletal muscle (glycogen content) ([2]; Normal mice) | Glycogen synthesis in skeletal muscle (glycogen content) ([2]; T1DM mice) | Glycogen synthesis in skeletal muscle (glycogen content) ([2]; T2DM mice) | fold increase of glycogen content (IL-6-treated C2C12 cells; 10^−6 mol/L) | fold increase of glycogen content (IL-6-treated C2C12 cells; 10^−7 mol/L) | fold increase of glycogen content (IL-6-treated C2C12 cells; 10^−8 mol/L) | glycogen content in liver ([1]; mice with type 1 DM) | glycogen content in liver ([1]; normal mice)
Insulin: human insulin, Insulin Actrapid HM, a short-acting insulin provided by Novo Nordisk [reference compound] | not increased | failed to enhance | 30.2 ± 2.0 μg of glucose per mg of tissue (wet weight) | 30.0 ± 1.0 μg of glucose per mg of tissue (wet weight) | 20.2 ± 0.6 μg of glucose per mg of tissue (wet weight) |  |  |  |  | 
C[C@@]12C[C@@H](c3ccoc3)OC(=O)[C@@H]1C[C@@H]1OC(=O)[C@@]3(O)[C@@H](O[C@@H]4O[C@H](CO)[C@@H](O)[C@H](O)[C@H]4O)CC[C@@H]2[C@@]13C [Borapetoside A, borapetoside A] |  | 146.1±12.0 % of vehicle control |  |  |  | 1.64±0.05 fold | 1.38±0.06 fold | 1.35±0.08 fold | 196.9±15.6 % of vehicle control | 257.8±15.8 % of vehicle control
COC(=O)C1=CCC[C@H]2[C@]3(C)C[C@@H](c4ccoc4)OC(=O)[C@@H]3C[C@@H](O[C@@H]3O[C@H](CO)[C@@H](O)[C@H](O)[C@H]3O)[C@@]12C [Borapetoside C, borapetoside C] |  |  | 25.1 ± 1.3 μg of glucose per mg of tissue (wet weight) | 23.2 ± 0.7 μg of glucose per mg of tissue (wet weight) | 23.3 ± 0.4 μg of glucose per mg of tissue (wet weight) |  |  |  |  | 
